{
  "source": "patent US11370771B2",
  "about": "“Inhibitors of TRPC6” (Boehringer Ingelheim International GmbH, priority 2018, dated 2022)",
  "data": [
    {"target": "T1, human TRPC6 (Homo sapiens, UniProt Q9Y210)", "T1 construct": "expressed in transfected cells", "T1 sequence (Q9Y210 1-931)": "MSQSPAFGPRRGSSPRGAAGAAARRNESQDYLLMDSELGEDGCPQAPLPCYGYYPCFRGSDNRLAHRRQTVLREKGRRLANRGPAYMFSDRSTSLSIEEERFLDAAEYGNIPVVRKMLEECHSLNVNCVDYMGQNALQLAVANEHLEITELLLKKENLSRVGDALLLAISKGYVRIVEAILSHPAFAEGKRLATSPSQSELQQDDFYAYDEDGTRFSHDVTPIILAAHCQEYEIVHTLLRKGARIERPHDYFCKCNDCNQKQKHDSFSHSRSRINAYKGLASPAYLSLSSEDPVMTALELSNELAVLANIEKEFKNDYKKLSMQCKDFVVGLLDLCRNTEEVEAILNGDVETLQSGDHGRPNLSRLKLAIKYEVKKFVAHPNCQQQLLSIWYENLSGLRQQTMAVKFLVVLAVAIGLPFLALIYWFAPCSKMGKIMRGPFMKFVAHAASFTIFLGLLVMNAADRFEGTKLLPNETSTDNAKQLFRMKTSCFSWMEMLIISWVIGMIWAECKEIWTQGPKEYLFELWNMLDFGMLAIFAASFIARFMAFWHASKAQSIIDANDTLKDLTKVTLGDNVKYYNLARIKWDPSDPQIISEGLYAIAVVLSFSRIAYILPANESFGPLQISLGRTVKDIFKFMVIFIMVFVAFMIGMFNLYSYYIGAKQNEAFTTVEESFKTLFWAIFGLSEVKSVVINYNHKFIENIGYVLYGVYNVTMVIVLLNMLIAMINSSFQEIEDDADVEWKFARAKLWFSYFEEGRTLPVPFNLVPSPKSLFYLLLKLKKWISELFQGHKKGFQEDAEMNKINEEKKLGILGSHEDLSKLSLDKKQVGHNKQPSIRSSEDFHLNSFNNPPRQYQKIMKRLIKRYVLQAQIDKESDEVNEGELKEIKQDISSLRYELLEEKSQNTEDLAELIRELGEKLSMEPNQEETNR", "assay": "High Throughput Screening Assay Method 1 (FLIPR membrane potential dye, OAG activation, HEK293 cells expressing human TRPC6)", "type": "cell-based", "conditions": "antagonist effect against human TRPC6, 60 μM OAG, read-out: Fluorescence TRPC6 IC50", "from_the_text": "(§1) This screening assay measures TRPC6 (transient receptor potential cation channel, subfamily C, member 6) ion channel activation via addition either of the commercially available DAG ligand analogue OAG (1-oleoyl-2-acetyl-sn-glycerol) or of the TRPC6 agonist 1-[1-(4,5,6,7,8-pentahydrocyclohepta[2,1-d]thiophen-2-ylcarbonyl)-4-piperidyl]-3-hydrobenzimidazol-2-one (GSK1702934A). The assay utilizes a FLIPR membrane potential (FMP) dye from Molecular Devices, which is a voltage sensitive indicator with a fluorescent quencher. Changes in membrane potential as measured by the fluorescent signal increase during membrane depolarization provide a measurement of channel activity.\nThe commercially available HEK293 cell line expressing human TRPC6 channel (Axxam/PerkinElmer) is scaled up in bulk and frozen in liquid nitrogen. Frozen cell stocks are thawed and re-suspended in culture media as recommended by the manufacturer supplemented with 0.5 mg/ml of geneticin to promote retention of the TRPC6 construct. Cells are plated at a density of 15,000 cells/well in Greiner 384 well poly-D-lysine coated black clear bottom plates, and incubated for 18-20 h at 37° C. and 5% CO2. To initiate the assay, the growth media is removed using a plate washer and 25 ul of a FMP dye mix is added to each well. The 4× stock FMP dye from the manufacturer is diluted 1× with assay buffer (low calcium Tyrode's assay buffer: 130 mM NaCl, 5 mM KCl, 0.15 mM CaCl2), 1 mM MgCl2, 5 mM NaHCO3, 20 mM HEPES pH 7.4) containing 36 μM BAPTA/AM. The cells are incubated at room temperature (19-22° C.) for 30 minutes. For the screening assay, 5 uL of diluted compound stock is added to each well and incubated for 15 minutes at room temperature (19-22° C.). Using the Hamamatsu FDSS6000 or FDSS7000, 10 uL of the synthetic, membrane permeant analog of 1,2 diacylglycerol (DAG), 1-oleoyl-2-acetoyl-n-glycerol (OAG), is added and fluorescent readings taken every second from 50 seconds to 3 minutes. […] Controls and blanks consisted of HEK293 TRPC6 cells that are exposed to OAG. A reference inhibitor added along with the test compound is included as part of the blanks. This inhibitor suppresses the TRPC6 channel activation. These controls set the screening window, and “hits” are defined as those compounds inhibiting the membrane depolarization caused by OAG by at least 50%. IC50 values are determined for compounds that meet these criteria by titrating compound stock at a final starting concentration of 30 μM using a 3-fold serial dilution for 11 points. Curves are generated by fitting each data set to a four-parameter logistic equation using nonlinear regression.", "units": {"IC50": "nM"}, "values": [
      {"smiles": "Nc1ccc(C2CCN(C(=O)c3ccc(Oc4ccccc4)cc3)CC2)cn1", "note": "[Compound 1, 5-[1-(4-phenoxybenzoyl)piperidin-4-yl]pyridin-2-amine]", "IC50": 326},
      {"smiles": "Nc1ccc(C2CCN(C(=O)c3ccc(Oc4ccc(C(F)(F)F)cc4)cc3)CC2)nn1", "note": "[Compound 2, 6-(1-{4-[4-(trifluoromethyl)phenoxy]benzoyl}piperidin-4-yl)pyridazin-3-amine]", "IC50": 504},
      {"smiles": "Nc1ccc(C2CCN(C(=O)c3ccc(Oc4ccccc4)cc3)CC2)nn1", "note": "[Compound 3, 6-[1-(4-phenoxybenzoyl)piperidin-4-yl]pyridazin-3-amine]", "IC50": 39},
      {"smiles": "Nc1ccc(C2CCN(C(=O)c3ccc(Oc4ccc(OC(F)(F)F)cc4)cc3)CC2)nn1", "note": "[Compound 4, 6-(1-{4-[4-(trifluoromethoxy)phenoxy]benzoyl}piperidin-4-yl)pyridazin-3-amine]", "IC50": 351},
      {"smiles": "Cc1ccc(Oc2ccc(C(=O)N3CCC(c4ccc(N)nn4)CC3)cc2)cc1", "note": "[Compound 5, 6-{1-[4-(4-methylphenoxy)benzoyl]piperidin-4-yl}pyridazin-3-amine]", "IC50": 372},
      {"smiles": "Nc1ccc(N2CCN(C(=O)c3ccc(Oc4ccc(C5CC5)cc4)cc3)CC2)nn1", "note": "[Compound 6, 6-{4-[4-(4-cyclopropylphenoxy)benzoyl]piperazin-1-yl}pyridazin-3-amine]", "IC50": 540},
      {"smiles": "N#Cc1ccc(Oc2ccc(C(=O)N3CCN(c4ccc(N)nn4)CC3)cc2)cc1", "note": "[Compound 7, 4-{4-[4-(6-aminopyridazin-3-yl)piperazine-1-carbonyl]phenoxy}benzonitrile]", "IC50": 4670},
      {"smiles": "Nc1ccc(N2CCN(C(=O)c3ccc(Oc4ccc5c(c4)OCO5)cc3)CC2)nn1", "note": "[Compound 8, 6-{4-[4-(2H-1,3-benzodioxol-5-yloxy)benzoyl]piperazin-1-yl}pyridazin-3-amine]", "IC50": 1230},
      {"smiles": "COc1ccc(Oc2ccc(C(=O)N3CCC(c4ccc(N)nn4)CC3)cc2)cc1", "note": "[Compound 9, 6-{1-[4-(4-methoxyphenoxy)benzoyl]piperidin-4-yl}pyridazin-3-amine]", "IC50": 511},
      {"smiles": "Nc1ccc(C2CCN(C(=O)c3ccc(Oc4ccc(F)cc4)cc3)CC2)nn1", "note": "[Compound 10, 6-{1-[4-(4-fluorophenoxy)benzoyl]piperidin-4-yl}pyridazin-3-amine]", "IC50": 75},
      {"smiles": "Nc1ccc(N2CCN(C(=O)c3ccc(Oc4ccc(Cl)cc4)cc3)CC2)nn1", "note": "[Compound 11, 6-{4-[4-(4-chlorophenoxy)benzoyl]piperazin-1-yl}pyridazin-3-amine]", "IC50": 1040},
      {"smiles": "Nc1ccc(C2CCN(C(=O)c3ccc(Oc4ccc(C5CC5)cc4)cc3)CC2)nn1", "note": "[Compound 12, 6-{1-[4-(4-cyclopropylphenoxy)benzoyl]piperidin-4-yl}pyridazin-3-amine]", "IC50": 400},
      {"smiles": "Nc1ccc(C2CCN(C(=O)c3ccc(Oc4ccc(Cl)cc4)cc3)CC2)nn1", "note": "[Compound 13, 6-{1-[4-(4-chlorophenoxy)benzoyl]piperidin-4-yl}pyridazin-3-amine]", "IC50": 266},
      {"smiles": "CCc1ccc(Oc2ccc(C(=O)N3CCN(c4ccc(N)nc4)CC3)cc2)cc1", "note": "[Compound 14, 5-{4-[4-(4-ethylphenoxy)benzoyl]piperazin-1-yl}pyridin-2-amine]", "IC50": 324}
    ]},
    {"target": "T1, human TRPC6", "assay": "High Throughput Screening Assay Method 2 (membrane potential dye, GSK1702934A agonist, HEK293 stably transfected with human TRPC6)", "type": "cell-based", "conditions": "antagonist effect against human TRPC6, 3 μM GSK1702934A agonist, HEK293 TRPC6 cells, read-out: Fluorescence TRPC6 IC50", "from_the_text": "as §1\nThe commercially available HEK293 cell line (ATCC) was stably transfected with an human TRPC6 gene construct in pcDNA3.1(+) (Thermo Fisher) and screened to find a clone with TRPC6 expression. These cells were maintained in growth medium recommended by the manufacturer supplemented with 400 μg/ml G418 to promote retention of the TRPC6 construct. After growing to near confluency, cells were plated at a density of 15,000 cells/well in clear bottom black walled poly-D-Lys coated 384-well tissue culture treated plates (TwinHelix, cat. #GR 4332 CPL) in growth medium lacking G418, and allowed to grow for 24 hrs. Growth media was removed from the wells and cells were then loaded with 20 μL of 0.5× Membrane Potential sensitive dye (Molecular Devices) in the presence of 30 μM BAPTA-AM (Invitrogen) in Tyrode's assay buffer (130 mM NaCl, 5 mM KCl, 0.15 mM CaCl2), 1 mM MgCl2, 5 mM NaHCO3, 20 mM HEPES, pH 7.4) and incubated for 60 min at room temperature in the dark. Ten μL/well of test compound or controls was added to the wells with the FLIPR^TETRA (Molecular Devices) and incubated for 5 minutes. Compounds were tested at eight concentrations (10, 3.16, 1, 0.316, 0.1, 0.0316, 0.01 and 0.00316 μM diluted in Tyrode's assay buffer and 0.5% DMSO, final concentration) with inter-plate duplicate data points. Subsequently, 15 μL/well of GSK1702934A agonist in Tyrode's assay buffer was added to a final concentration of 3 μM by the FLIPR^TETRA and the signal of the emitted fluorescence (Excitation: 510-545 nm, Emission: 565-625 nm) was recorded for 3 minutes. Negative and positive controls were included on each plate. Negative controls wells consisted of cells exposed to Tyrode's assay buffer and agonist solution, but no test compound. Positive control consisted of cells exposed to […] Verapamil hydrochloride (Tocris, cat. #0654) diluted in Tyrode's assay buffer and 0.5% DMSO final concentration and agonist solution. Inhibition was expressed as a percentage of control, with 0% activity being a result in which the response value of the test wells reached a level identical to the wells containing Verapamil plus GSK1702934A and 100% activity being a result in which the response value of the test wells reached a level identical to the wells containing GSK1702934A alone. Genedata Screener® 14.0.6 was used for data analysis to fit IC50 curves.", "units": {"IC50": "nM"}, "values": [
      {"smiles": "Nc1ccc([C@@H]2CCN(C(=O)c3cc(F)c(Oc4ccc(F)cc4)cc3F)[C@H](CO)C2)nn1", "note": "[Compound 52b, [(2S,4R)-4-(6-Aminopyridazin-3-yl)-1-[2,5-difluoro-4-(4-fluorophenoxy)benzoyl]piperidin-2-yl]methanol]", "IC50": 80},
      {"smiles": "COc1cc(N)ncc1C1CCN(C(=O)c2ccc(OCc3ccon3)cc2F)CC1", "note": "[Compound 53, 5-(1-{2-Fluoro-4-[(1,2-oxazol-3-yl)methoxy]benzoyl}piperidin-4-yl)-4-methoxypyridin-2-amine]", "IC50": 641},
      {"smiles": "COc1cc(N)ncc1C1CCN(C(=O)c2ccc(OCc3nccs3)cc2F)CC1", "note": "[Compound 54, 5-(1-{2-Fluoro-4-[(1,3-thiazol-2-yl)methoxy]benzoyl}piperidin-4-yl)-4-methoxypyridin-2-amine]", "IC50": 1190}
    ]}
  ]
}
